The values below come from patent US20240398738A1, “MANIPULATION OF THE RETINOIC ACID SIGNALING PATHWAY” (THE REGENTS OF THE UNIVERSITY OF CALIFORNIA, priority 2017, published 2024).

Assay [1] concerns RGCs in WT retina. The experiment in a line: MEA recording of photoswitch (QAQ, BENAQ) photosensitization in WT retina. Format: in vivo, mouse. As to conditions: WT retina, 3-7 days after intravitreal injection. Here is the method:
(§1) Intravitreal Injections. Before injection, mice were anesthetized with isoflurane (2%) and their pupils were dilated with tropicamide (1%) and phenylephrine (2.5%). Proparacaine (0.5%) was used as a topical analgesic. Genteal was applied under a glass coverslip to keep the cornea lubricated. An incision was made through the sclera below the ora serrata with a 30G needle and ˜1 μl of solution was injected into the vitreous with a blunt-ended 33G Hamilton syringe. After injection, the antibiotic tobramycin (0.3%) was applied to the eye. Final drug concentrations after intravitreal injection were: all-trans retinoic acid (ATRA, 100 nM), liarozole (100 μM), diethylaminobenzaldehyde (DEAB, 20 μM), citral (50 μM), BMS-493 (500 nM), and retinaldehyde (1 μM). The above values correspond to the final concentration in the eye after injecting 1 μl of drug accounting for a 5-fold dilution. An injection of PBS including 1% DMSO was used as vehicle control.
Multi Electrode Array Recordings. For extracellular recordings, a flat-mounted retina was placed ganglion cell layer down onto a 60-electrode Multi-Electrode Array (MEA 1060-2-BC, Multi-Channel Systems). After mounting the retina, photoswitches were applied for 30 min, followed by a 15 min wash. BENAQ was applied at a concentration of 100 μM and QAQ at 300 μM. A solution containing a mixture of neurotransmitter receptor blockers isolated RGCs from synaptic inputs: (in μM) 10 AP4, 40 DNQX, 30 AP5, 10 SR-95531, 50 TPMPA, 10 strychnine, and 50 tubocurarine. Extracellular spikes were high-pass filtered at 200 Hz and digitized at 20 kHz and were counted when exceeding 4 SD from the mean background voltage signal. Typically, each electrode recorded spikes from one to three individual RGCs. Principal component analysis of the spike waveforms was used for sorting spikes generated by individual cells (Offline Sorter, Plexon). Stimulation light was generated from a mercury arc lamp. Unfiltered broad spectrum light was used for BENAQ-treated retinas. Narrow band optical filters (Chroma) were used to deliver alternating intervals of 380 nm and 500 nm for stimulation of QAQ-treated as described previously (5,12). The Photoswitch Index (5) (PI) was established for individual retinas in light/darkness for treatment with BENAQ or in 380 nm/500 nm light for treatment with QAQ (11,12).
(§2) Injections. Intravitreal injections: Adult mice and rats were intravitreally injected with drugs or viruses. Before injection, animals were anesthetized with isoflurane (2%) and their pupils were dilated with tropicamide (1%) and phenylephrine (2.5%). Proparacaine (0.5%) was used as a topical analgesic. Genteal was applied under a glass coverslip to keep the cornea lubricated. An incision was made through the sclera below the ora serrata with a 30G needle. Solutions were injected into the vitreous with a blunt-ended 33G Hamilton syringe. After injection, the antibiotic tobramycin (0.3%) was applied to the eye. Final drug concentrations (after 5-fold dilution in the vitreous) were: 100 nM all-trans retinoic acid (ATRA), 100 μM liarozole (24), 20 μM diethylaminobenzaldehyde (DEAB) (28,93), 50 μM citral, 500 nM BMS 493 (85), 1 μM retinaldehyde, and vehicle comprising of 1× phosphate buffered saline (PBS) containing 1% dimethyl sulfoxide (DMSO). Intravitreal injections were performed using AAV2 serotype only. WT and rd1 mice were injected with the RAR-reporter virus or the RARDN virus, at age 1-1.5 month-old. WT and s334ter rats were injected with the RAR-reporter virus at age 3-4 month-old. Final volume of injections was 1-1.5 μL for mice and 5 μL for rats.
Multi Electrode Array Recordings. Flat-mounted retina was placed ganglion cell layer down onto a 60-electrode Multi-Electrode Array (MEA 1060-2-BC, Multi-Channel Systems). After mounting the retina was left to dark adapt for 20 minutes under constant perfusion with oxygenated saline at 34° C. 300 μM QAQ at was applied for 30 min, followed by a 5 min wash. […]

In assay [2] the test system is RGCs in rd1 retina. The experiment in a line: YO-PRO-1 loading assay (dye permeability of RGCs) in rd1 retina after intravitreal injection. The format is in vivo, mouse. How it is done: as §1
Yo-PRO-1 Loading Assay. After dissection, retinas were cut into thirds and mounted on a windowed nitrocellulose filter paper. Retinas were treated with 200 nM Yo-PRO-1 (Life Technologies) in oxygenated ACSF for 15 minutes, followed by treatment and then treated with nuclear ID (Enzo Life Sciences) at a 1:500 dilution for 3 minutes. ACSF was perfused continuously at 3 ml/min for a period of 5 minutes to wash away excess dye. In experiments employing TNP-ATP (200 μm), the retinas was pretreated with the compound for ten minutes before beginning YO-PRO-1 treatment.
Image analysis. All image analysis was performed using ImageJ or Fiji software (55,56). Yo-PRO-1 loading assay, ROIs were manually selected using the nuclear-ID channel based upon morphological characteristics. This was performed after computationally flattening the retina by performing a maximum Z projection onto a single plane. Following this, a background subtraction was performed with a rolling radius of 50 pixels. Cells identified as vascular endothelial cells or pericytes were not included in the analysis. This was confirmed using transillumination. A threshold for YO-PRO-1 loading was established by measuring the level of autofluorescence of untreated retinas in each channel and finding a baseline value with +2SD being the threshold for a YO-PRO-1 positive cell. Nuclear-ID was used to count the total number of cells within a field of view. The percentage of cells above the threshold was then calculated for comparison. For analysis of RARE double reporter virus assay, ROIs were manually selected on the RFP channel first and then superimposed to the GFP channel. Single cell values for both RFP and GFP were filtered by using a RFP minimum threshold established in naive unlabeled retinas.
as §2, with “rats. […]” for “rats.”

Take `CC1=C(/C=C/C(C)=C/C=C/C(C)=C/C(=O)O)C(C)(C)CCC1` [ATRA, all-trans retinoic acid]: the “QAQ photosensitization of WT retina, in words” value in assay [1] was “Neither ATRA nor liarozole alone enabled significant QAQ photosensitization”. Moreover, the “Photoswitch Index (PI) with QAQ” value in assay [1] (QAQ 300 μM, mean±SEM) is 0.1±0.05.

As for `CC1(C)CC=C(C#Cc2ccccc2)c2cc(/C=C/c3ccc(C(=O)O)cc3)ccc21` [BMS-493], the “Yo-Pro-1 labeling of rd1-RGCs, result in words” value in assay [2] (rd1, intravitreal injection, compared to vehicle-injected) is given as “reduced Yo-Pro-1 labeling in rd1 to WT levels”. The “percentage of YO-PRO-1 positive cells (fraction of RGC nuclei labeled)” value in assay [2] (rd1 mice, intravitreal injection, measured 3-7 days after, BMS-493 500 nM, DEAB 20 uM, citral 50 uM, mean±SEM) is 6.13±1.43%.
